According to patent US20220079903A1, “COMPOSITIONS AND METHODS FOR TREATING AND PREVENTING ADHESIONS AND ILUES” (Leading Biosciences, Inc., priority 2016, published 2022):
“Also recorded” adds a separate entry of the source.

Tested on: abdominal adhesions in a rat model of surgical adhesions
Assay: rat model of surgical (abdominal) adhesions, small intestine rubbed with latex glove
Assay type: in vivo, Wistar rats
Procedure: The objective of the current study was to compare the efficacy of enteral saline, enteral Formula A, lavage tranexamic acid (TXA), and enteral Formula A with lavage TXA to prevent abdominal adhesions in a rat model of surgical adhesions.
The tests were conducted on Wistar rats from Harlan/Charles River. The sample size included 40 animals in total, with a target weight of 350-400 g (males). The rat was selected as the test model since it is accepted by regulatory authorities as a rodent animal model for toxicity studies, and high quality animals are readily available and a large amount of background pathology data is available in this species. […] The model reproducibility provides the ability to observe directional proof of concept data within normal experimental conditions.
Four groups were measured; Group 1 served as the control wherein saline (Baxter, 0.9% sodium chloride IV solution bags) was administered via enteral administration; subjects in Group 2 were exposed to an enteral administration of Formula A; subjects in Group 3 were exposed to a lavage of tranexamic acid (TXA) and saline; and subjects in Group 4 were given enteral administration of Formula A and a lavage of tranexamic acid (TXA) and saline.
Prior to the experiment, the animals were fasted and prepared for the adhesion model according to the schedule: (A) Evening Prior to Experiment—Begin Fasting; (B) Day 1: Hour−2.0—Administration of enteral test article (oral gavage); (C) Day 1: Hour 0.0−Induction of anesthesia with ketamine with a dose of 75 mg/kg, I.M; and (D) Day 1: Hour 0+10 min—induction of surgical adhesion model.
A small skin incision in the midline of the abdomen was made for isolation of small intestine. A length of the small intestine was rubbed gently with a latex glove 10 times. Animals were given abdominal lavage test article immediately after the small intestine was rubbed. Laparotomy was sutured and the animal allowed to recover. During surgery, the animals were kept warm (37° C.) at all times by a temperature therapy pad and vital signs (systemic blood pressure or respiratory rate, body temperature) were monitored at all times during experiment. Leg motion and toe reflexes were monitored for anesthetic level. On day 28—The animals were euthanized and the number and size/thickness of adhesions were quantified.

[1] = vs enteral saline Group 1, 2 side T-test

## NC[C@H]1CC[C@H](C(=O)O)CC1 [tranexamic acid (TXA), tranexamic acid]
Wistar rats, day 28, enteral = 4 ml oral gavage 2 hr pre surgery, lavage = 4 ml TXA in saline right after rubbing, saline control 4.10
  mean number of adhesions per animal: 0.67
Day 28, score 0-4: 4 = no adhesions, 3 ≤1 mm, 2 >1 mm ≤2 mm, 1 >2 mm, 0 = kinked intestine, saline control 1.60
  mean severity of adhesions (score): 3.00
[1]
  number of adhesions relative to the control (in words): significantly less adhesions relative to the control; also recorded: significant relative to the control Group 1
  severity of adhesions relative to the control (in words): significantly smaller adhesions in terms of severity relative to the control; also recorded: significant relative to the control Group 1
